For 46 compounds, IC50 results are on record in patent US20230014907A1, “INHIBITORS OF APOL1 AND METHODS OF USING SAME” (Vertex Pharmaceuticals Incorporated, priority 2020, published 2023).

The target in the assay is T1, G1 APOL1 (Homo sapiens, UniProt O14791, I384M/S342G).
T1 construct: expressed in transfected cells
T1 sequence (O14791 28-398 S342G/I384M): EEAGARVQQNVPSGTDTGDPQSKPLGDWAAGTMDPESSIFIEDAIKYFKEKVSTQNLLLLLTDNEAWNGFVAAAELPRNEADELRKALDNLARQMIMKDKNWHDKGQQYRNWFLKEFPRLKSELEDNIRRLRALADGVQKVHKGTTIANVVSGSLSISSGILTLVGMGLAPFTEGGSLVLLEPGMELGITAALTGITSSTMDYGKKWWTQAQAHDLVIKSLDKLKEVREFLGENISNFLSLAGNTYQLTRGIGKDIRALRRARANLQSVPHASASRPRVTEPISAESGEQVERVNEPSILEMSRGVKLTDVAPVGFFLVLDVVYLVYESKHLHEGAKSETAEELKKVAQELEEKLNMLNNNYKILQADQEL
Kind of assay: Acute APOL1 Thallium Assay with Inducible Stable Clones of HEK 293 Cells. Particulars: HEK 293 inducible stable clones, G1 APOL1; read-out: Thallium Assay (IC50). The format is cell-based. The text has this:
Acute APOL1 Thallium Assay with Inducible Stable Clones of HEK 293 Cells
Apolipoprotein L1 (APOL1) proteins form potassium-permeable cation pores in the plasma membrane. APOL1 risk variants (G1 and G2) induce greater potassium flux than G0 in HEK293 cells. This assay exploits the permeability of thallium (Tl+) through ligand-gated potassium channels. The dye produces a bright fluorescent signal upon binding to Tl+ conducted through potassium channels. The intensity of the Tl+ signal is proportional to the number of potassium channels in the open state. Therefore, it provides a functional indication of the potassium channel activities. During the initial dye-loading step, the Tl+ indicator dye as an acetoxymethyl (AM) ester enters the cells through passive diffusion. Cytoplasm esterases cleave the AM ester and relieve its active thallium-sensitive form. The cells are then stimulated with Tl+. The increase of fluorescence in the assay represents the influx of Tl+ into the cell specifically through the potassium channel (i.e. through APOL1 pores), providing a functional measurement of potassium channel/pore activity. The Thallium assay is conducted with cells expressing G1 APOL1.
APOL1 Cell Line (HEK T-Rex Stable Inducible Cell Line) • HEK T-Rex System • Tetracycline (Tet) inducible mammalian expression system. • Stably express the Tet repressor to regulate transcription. • Expression under the full-length CMV promoter. • APOL1 stable inducible cell line Clone used: G1 DC3.25
Tissue Culture Media • Cell Culture Medium • DMEM+10% FBS+P/S+5 μg/mL blasticidin+1 μg/mL puromycin. • 500 mL DMEM+55 mL FBS+5 mL P/S+280 μL blasticidin S HCl (10 mg/mL)+56 μL puromycin (10 mg/mL). • Cell Assay Medium • DMEM with 2% FBS+penicillin/streptomycin.
Instruments and Equipment • Nuaire cell culture hood, Cat. No. 540-600 • 37° C./5% CO2 incubator link to robotic arm, Liconic: STX110 • Molecular Devices FLIPR^Tetra High throughput cellular screening system, Cat. No. FT0324, Molecular Devices • ThermoFisher MultiDrop 384, Cat. No. 5840300 • Biotek Microfill, Cat. No. ASF1000A-4145 • BioRad TC10 cell counter, Cat. No. 145-0010
Cells Scaled Up from Frozen Vials • APOL1 G1 3.25 (HEK293 T-Rex) frozen vials: 5 million cells per vial • Step 1, Day 1: Defrost frozen vial into T-225. • Step 2, Day 5: (when 85% confluent): Split one T-225 at 3×10^6 cells per flask. • Step 3, Day 8: Splits cells to set up for the assay plates as described below.
T-Rex APOL1 HEK cells are split twice per week to keep the confluence state below 85% of the culture flask surface area. Cells can be kept until passage 25. • Cell Culture Medium • DMEM high glucose+10% FBS, +P/S, +5 μg/mL blasticidin, +1 μg/mL puromycin. • 500 mL DMEM, +55 mL FBS, +5 mL P/S, +280 μL blasticidin 10 mg/mL, +56 μL Puromycin 10 mg/mL. • Assay Media • Opti-MEM reduced serum medium from Invitrogen.
Preparation of Cell Assay Plates • Culture medium is removed from the x cm^2 T-flask by aspiration. • The cell monolayer is rinsed with PBS 1× at room temperature. PBS is removed by aspiration. • Cells are trypsinized using Trypsin. • The flasks are incubated at room temperature for 2-3 minutes. • Complete DMEM medium is then added. Cell suspension is then transferred to a 50 mL Falcon polypropylene tube. • Cells are then counted using a BioRad TC10 cell counter and the required amount of cells are centrifuged at 1200 RPM for 5 minutes. Required amount is 1.3×10^6 cells/mL APOL1 T-Rex HEK cells. • The pellet is suspended in the assay medium. • Using the MultiDrop, add 20 μL to each well (corresponds to 26000 cells total per well) of a 384-well black, transparent, flat bottom Poly-D coated plate. • Tetracycline as prepared in the following section is added to the cells before plating to induce APOL1 expression. • Plates are left at room temperature for 20 to 30 minutes before incubation at 37° C. and 5% CO2. […]

For `O=C(NCCc1c(-c2ccc(F)cc2)[nH]c2c(F)cc(F)cc12)c1ccccn1` [Compound 403], the IC50 was over 1000 nM.

With `CC[C@@H](CO)NC(=O)OCCc1c(-c2ccc(F)cc2)[nH]c2c(F)cc(F)cc12` [Compound 446], the IC50 is under 250 nM.

`O=C(NCCc1c(-c2ccc(F)cc2)[nH]c2c(F)cc(F)cc12)c1ccnnc1` [Compound 399]: the IC50 was over 1000 nM.

With `NC(=O)[C@@H](CO)NC(=O)CCc1c(-c2ccc(F)cc2)[nH]c2c(F)cc(Cl)cc12` [Compound 202], the IC50 was over 1000 nM.

For `O=C(CCc1c(-c2ccc(F)cc2)[nH]c2c(F)cc(F)cc12)N[C@@H](CO)C(F)F` [Compound 132], the IC50 was under 250 nM.

For the compound `C[C@@H](CO)N(C)C(=O)NCCc1c(-c2ccc(F)cc2)[nH]c2c(F)cc(F)cc12` [Compound 300], the IC50 is over 1000 nM.

Regarding `O=C1CC(C(=O)NCCc2c(-c3ccc(F)cc3)[nH]c3c(F)cc(F)cc23)CO1` (stereo not shown) [Compound 383], the IC50 is over 1000 nM.

Regarding `O=C(NC(CO)C1CC1)OCCc1c(-c2ccc(F)cc2)[nH]c2c(F)cc(F)cc12` (stereo not shown) [Compound 451], the IC50 is under 250 nM.

For the compound `O=C(CCN1CCCC1=O)NCCc1c(-c2ccc(F)cc2)[nH]c2c(F)cc(F)cc12` [Compound 370], the IC50 was over 1000 nM.

For `NC(=O)C1(NC(=O)CCc2c(-c3ccc(F)cc3)[nH]c3c(F)cc(F)cc23)CC1` [Compound 107], the 50% inhibitory concentration (IC50) lay in the range of 250 to 1000 nM.

On to `Cc1cc(F)c2[nH]c(-c3ccc(F)cc3)c(CCC(=O)N[C@H](C)CO)c2c1` [Compound 213], for which the IC50 was in the range of 250 to 1000 nM.

Turning to `CC(CO)NC(=O)OCCc1c(-c2ccc(F)cc2)[nH]c2c(F)cc(F)cc12` (racemic) [Compound 439], the IC50 was under 250 nM.

As to `O=C(CCc1c(-c2ccc(F)cc2)[nH]c2c(F)cc(Cl)cc12)NC[C@H](O)CO` [Compound 204], the IC50 is over 1000 nM.

For the compound `C[C@H](CO)NC(=O)OCCc1c(-c2ccc(F)cc2)[nH]c2c(F)cc(F)cc12` [Compound 445], the IC50 was under 250 nM.

Regarding `CC(C)(O)CCNC(=O)NCCc1c(-c2ccc(F)cc2)[nH]c2c(F)cc(F)cc12` [Compound 270], the IC50 is over 1000 nM.

Regarding `Cn1ccnc1S(=O)(=O)NCCc1c(-c2ccc(F)cc2)[nH]c2c(F)cc(F)cc12` [Compound 424], the IC50 is over 1000 nM.

Turning to `Cn1cnc(C(=O)NCCc2c(-c3ccc(F)cc3)[nH]c3c(F)cc(F)cc23)c1` [Compound 389], the IC50 was over 1000 nM.

For `CC(C)C(CO)NC(=O)OCCc1c(-c2ccc(F)cc2)[nH]c2c(F)cc(F)cc12` (stereo not shown) [Compound 467], the IC50 was 250 to 1000 nM.

With `O=C(N[C@@H](CO)C(F)F)OCCc1c(-c2ccc(F)cc2)[nH]c2c(F)cc(F)cc12` [Compound 441], the IC50 is under 250 nM.

With `CC(CO)CNC(=O)NCCc1c(-c2ccc(F)cc2)[nH]c2c(F)cc(F)cc12` (racemic) [Compound 280], the IC50 was over 1000 nM.

For the compound `NC(=O)CNC(=O)CCCc1c(-c2ccc(F)cc2)[nH]c2c(F)cc(F)cc12` [Compound 246], the IC50 is over 1000 nM.

On to `Cc1nccn1CC(=O)NCCc1c(-c2ccc(F)cc2)[nH]c2c(F)cc(F)cc12` [Compound 380], for which the IC50 was over 1000 nM.

For `O=C(NCc1ncc[nH]1)OCCc1c(-c2ccc(F)cc2)[nH]c2c(F)cc(F)cc12` [Compound 484], the 50% inhibitory concentration (IC50) was over 1000 nM.

As for `CC(C)(CF)C(=O)NCCc1c(-c2ccc(F)cc2)[nH]c2c(F)cc(F)cc12` [Compound 405], the IC50 lay within 250 to 1000 nM.

As to `Cc1cc(F)c2[nH]c(-c3ccc(F)cc3)c(CCC(=O)NC(C#N)CO)c2c1` (stereo not shown) [Compound 215], the 50% inhibitory concentration (IC50) fell in the range of 250 to 1000 nM.

Take `Cc1cnn(CC(=O)NCCc2c(-c3ccc(F)cc3)[nH]c3c(F)cc(F)cc23)c1` [Compound 379]: the half-maximal inhibitory concentration (IC50) was over 1000 nM.

`O=C1CC(C(=O)NCCc2c(-c3ccc(F)cc3)[nH]c3c(F)cc(F)cc23)CCN1` (stereo not shown) [Compound 331]: the IC50 was over 1000 nM.

As for `O=C(NCCc1c(-c2ccc(F)cc2)[nH]c2c(F)cc(F)cc12)C1COC1` [Compound 413], the IC50 was over 1000 nM.

As to `O=C(NCCc1c(-c2ccc(F)cc2)[nH]c2c(F)cc(F)cc12)N[C@H](CO)C(F)(F)F` [Compound 262], the IC50 was under 250 nM.

Take `CC(C)[C@@H](CO)NC(=O)NCCc1c(-c2ccc(F)cc2)[nH]c2c(F)cc(F)cc12` [Compound 269]: the IC50 was over 1000 nM.

Consider `CC1(CO)CCN1C(=O)CCc1c(-c2ccc(F)cc2)[nH]c2c(F)cc(F)cc12` (stereo not shown) [Compound 110], for which the IC50 lay within 250 to 1000 nM.

For `O=C(NCC(O)CO)OCCc1c(-c2ccc(F)cc2)[nH]c2c(F)cc(F)cc12` (stereo not shown) [Compound 468], the IC50 was 250 to 1000 nM.

Regarding `CC(CCO)NC(=O)CCc1c(-c2ccc(F)cc2)[nH]c2c(F)cc(F)cc12` (racemic) [Compound 147], the IC50 was over 1000 nM.

For `CCOCCc1c(-c2ccc(F)cc2)[nH]c2c(F)cc(F)cc12` [Compound 503, 3-(2-ethoxyethyl)-5,7-difluoro-2-(4-fluorophenyl)-1H-indole], the IC50 was over 1000 nM.

With `O=C(NCCc1c(-c2ccc(F)cc2)[nH]c2c(F)cc(F)cc12)c1ncccn1` [Compound 397], the IC50 was over 1000 nM.

As to `O=C(CCCc1c(-c2ccc(F)cc2)[nH]c2c(F)cc(F)cc12)N[C@@H]1CCNC1=O` [Compound 247], the IC50 was over 1000 nM.

On to `O=C(NCCc1c(-c2ccc(F)cc2)[nH]c2c(F)cc(F)cc12)C1CCCCC1O` (stereo not shown) [Compound 326], for which the IC50 fell in the range of 250 to 1000 nM.

Turning to `O=C(NCCc1c(-c2ccc(F)cc2)[nH]c2c(F)cc(F)cc12)C1CC1(F)F` (stereo not shown) [Compound 404], the IC50 is 250 to 1000 nM.

In the case of `CC(C)(C)[C@H](CO)NC(=O)NCCc1c(-c2ccc(F)cc2)[nH]c2c(F)cc(F)cc12` [Compound 265], the IC50 was over 1000 nM.

`O=C(NCCc1c(-c2ccc(F)cc2)[nH]c2c(F)cc(F)cc12)C1(O)CC1` [Compound 360]: the IC50 lay in the range of 250 to 1000 nM.

For the compound `O=C(NCCc1c(-c2ccc(F)cc2)[nH]c2c(F)cc(F)cc12)c1cscn1` [Compound 385], the IC50 is over 1000 nM.

As to `Cn1cnc(CNC(=O)OCCc2c(-c3ccc(F)cc3)[nH]c3c(F)cc(F)cc23)c1` [Compound 478], the half-inhibitory concentration (IC50) is over 1000 nM.

Consider `O=C(CCCc1c(-c2ccc(F)cc2)[nH]c2c(F)cc(F)cc12)N[C@H]1C[C@@H](CO)NC1=O` [Compound 256], for which the IC50 was over 1000 nM.

For the compound `CC(C)(C)OC(=O)N[C@@H](CCO)C(=O)NCCc1c(-c2ccc(F)cc2)[nH]c2c(F)cc(F)cc12` [Compound 307], the IC50 was over 1000 nM.

With `CC(CC(N)=O)N(C)C(=O)NCCc1c(-c2ccc(F)cc2)[nH]c2c(F)cc(F)cc12` (racemic) [Compound 290], the IC50 is over 1000 nM.

Take `O=C1C[C@@H](NC(=O)CCCc2c(-c3ccc(F)cc3)[nH]c3c(F)cc(F)cc23)C(=O)N1` [Compound 242]: the IC50 is over 1000 nM.
